{"source": "paper PMC12518639", "about": "“Apomorphine is a novel necroptosis inhibitor targeting mixed lineage kinase domain-like protein oligomerization” (Cell Death Discovery, 2025)", "key": {"[1]": {"target": "T1, Nt-hMLKL^R145A/R146A/F148A/M150A (Homo sapiens, UniProt Q8NB16, F148A/M150A/R145A/R146A)", "T1 construct": "an N-terminal domain (Nt-hMLKL, amino acids 2–154, MW: 23 kDa) involved in oligomerization; His (N); made in house; host or cells: E. coli BL21", "T1 sequence (Q8NB16 2-154 R145A/R146A/F148A/M150A)": "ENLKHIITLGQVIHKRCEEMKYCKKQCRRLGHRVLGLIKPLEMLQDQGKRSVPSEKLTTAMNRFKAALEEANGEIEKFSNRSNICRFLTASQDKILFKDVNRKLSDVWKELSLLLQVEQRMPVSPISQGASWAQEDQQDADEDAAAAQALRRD", "test": "SPR binding to Nt-hMLKL quadruple mutant", "settings": "CM5 chip", "description": "The hMLKL plasmid (RC213152, OriGene, Rockville, MD, USA), and recombinant Wt-hMLKL (ab241453, Abcam) and Wt-mMLKL (MBS1379843, MyBioSource, San Diego, CA, USA) proteins were purchased. Nt-hMLKL (2–154), Nt-mMLKL (1–180), and Ct-hMLKL (183–471) were generated using the pBT7-N-His vector. Nt-hMLKL^C86A, Nt-hMLKL^F148A, -hMLKL^C86A/L89A/D94A, and Nt-hMLKL^R145A/R146A/F148A/M150A were generated using the Site-directed Mutagenesis Kit (EZ004S, Enzynomics, S. Korea). These constructs were subcloned into pBT7-N-His and pET-15b plasmid vectors. E. coli BL21 cells transformed with the cloned expression vectors were cultured in LB medium and supplemented with 100 μg/mL ampicillin until an OD at 600 nm of 0.5–0.6 was reached. The cultures were induced by 1 mM IPTG (367-93-1, Sigma-Aldrich). The cells were lysed and centrifuged. The clear supernatants were subjected to Ni-NTA affinity chromatography (175018169, QIAGEN, Hilden, Germany). Plasmids encoding mMLKL (1–464)–gyrase fusion constructs were kindly provided by Prof. […]\nThe interactions of Wt-hMLKL, Wt-mMLKL, Nt-mMLKL, Nt, and Ct-hMLKL proteins with Re-APO or Ox-APO were detected through SPR analysis using Biacore™ T200 (Cytiva, Marlborough, MA, USA). […] Sensorgrams were recorded and analyzed in real-time using the control software in the BIAcore T200 system. All data were analyzed using the BIA evaluation software (Cytiva)."}, "[2]": {"test_system": "APAP-induced liver injury in MLKL−/− C57BL/6 mice", "test": "APAP-induced liver injury in MLKL knockout mice", "format": "in vivo, mouse", "settings": "15 mg/kg, 400 mg/kg APAP, 24 h", "protocol": "For APAP-induced liver injury, male BALB/c mice aged 6–8 weeks (Central Lab Animal Inc., S. Korea) and male MLKL^–/– C57BL/6 mice aged 6–8 weeks (Cyagen, Santa Clara, CA, USA) were administered acetaminophen (APAP; 400–500 mg/kg, 103-90-2, Sigma-Aldrich) by i.p. injection to induce liver injury in the presence or absence of APO after 12 h of fasting. After 24 h, the mice were sacrificed to obtain liver tissues for further analysis.\nFor liver tissue preparation, each liver was perfused with DPBS and then fixed in 4% paraformaldehyde (PFA; PC2031-050-00, Biosesang, S. Korea) before embedding in paraffin. Sections were stained with H&E, and necrotic areas were quantified using ImageJ by calculating the proportion of pale or unstained regions relative to the total tissue area. Mouse liver sections were subjected to IHC staining to assess distinct forms of cell death: an anti-p-MLKL antibody (MA5-32752, Thermo Fisher Scientific) to evaluate p-MLKL localization (necroptosis), a TUNEL assay kit (4810-30-K, R&D Systems) for apoptosis, and an anti-4-HNE antibody (GTX01087, GeneTex) for ferroptosis.\nFig. S6 APO reduces liver damage in MLKL^–/– mice. […] Necrotic areas were quantified as the proportion of unstained regions relative to the total tissue area. […] (D) Serum AST and ALT levels were evaluated to assess liver injury after APAP injection. […]"}}, "data": [{"smiles": "CN1CCc2cccc3c4c(cc1c23)C=CC(=O)C4=O", "note": "[Ox-APO]", "values": [{"measurement": "binding in SPR", "setting": "[1]", "value": "retained binding"}, {"measurement": "hepatic damage (H&E, ALT, AST, TUNEL, 4-HNE)", "setting": "[2]", "value": "significantly reduced"}]}]}
